Assay results published in ChEMBL document CHEMBL1201862, “PubChem BioAssay data set” (2004).
Calls of active or inactive are those of the source.

Tests used:
[1] = molecular target: T1, Short transient receptor potential channel 4 (Mus musculus, UniProt Q9QUQ5); assay: mouse TRPC4 channel inhibitors, dose response, cell-based, HEK293 TRPC4/mu-opioid, Fluo-4 calcium (AID 434942); format: functional;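 also: potency of inhibitors blocking the TRPC4 calcium response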
T1 sequence (Q9QUQ5 whole entry): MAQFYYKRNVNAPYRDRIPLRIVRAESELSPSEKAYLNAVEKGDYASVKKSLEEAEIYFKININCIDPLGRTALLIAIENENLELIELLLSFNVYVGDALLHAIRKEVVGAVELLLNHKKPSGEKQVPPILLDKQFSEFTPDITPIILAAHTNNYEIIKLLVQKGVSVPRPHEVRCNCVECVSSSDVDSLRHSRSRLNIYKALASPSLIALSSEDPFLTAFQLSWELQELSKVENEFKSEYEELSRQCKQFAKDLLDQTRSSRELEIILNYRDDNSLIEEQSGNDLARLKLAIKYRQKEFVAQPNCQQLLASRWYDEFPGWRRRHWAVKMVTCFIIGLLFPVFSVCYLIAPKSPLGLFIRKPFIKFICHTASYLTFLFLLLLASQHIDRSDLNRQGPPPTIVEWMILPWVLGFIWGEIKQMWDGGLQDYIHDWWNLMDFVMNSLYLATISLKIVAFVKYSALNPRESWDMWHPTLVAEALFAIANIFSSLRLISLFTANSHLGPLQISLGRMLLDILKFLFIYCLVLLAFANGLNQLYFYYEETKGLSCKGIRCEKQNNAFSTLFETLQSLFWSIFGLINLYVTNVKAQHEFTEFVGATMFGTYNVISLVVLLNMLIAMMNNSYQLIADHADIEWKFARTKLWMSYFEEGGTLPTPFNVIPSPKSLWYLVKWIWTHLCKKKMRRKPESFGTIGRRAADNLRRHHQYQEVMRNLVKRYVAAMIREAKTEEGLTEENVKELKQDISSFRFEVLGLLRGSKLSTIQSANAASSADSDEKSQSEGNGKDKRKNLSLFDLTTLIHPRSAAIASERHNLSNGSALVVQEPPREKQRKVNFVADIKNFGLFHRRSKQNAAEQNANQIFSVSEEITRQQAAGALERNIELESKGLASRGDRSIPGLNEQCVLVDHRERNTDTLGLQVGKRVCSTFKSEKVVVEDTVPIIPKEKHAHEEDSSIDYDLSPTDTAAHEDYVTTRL

cells [2] = format: functional, cell-based
[3] = molecular target: Glyceraldehyde-3-phosphate dehydrogenase (Homo sapiens, UniProt P04406)
cells [4] = format: functional, cell-based; remark: listed apart in the source
HEK293 [5] = assay: NOD1 signaling inhibitors, primary screen, cell-based, luminescence, uHTS (AID 1578); format: functional; details: Homo sapiens
HEK293 [6] = assay: cells; format: functional, cell-based; details: Homo sapiens
HEK293 [7] = assay: cells; format: functional, cell-based; details: Homo sapiens; remark: listed apart in the source
[8] = molecular target: Nucleotide-binding oligomerization domain-containing protein 2 (Homo sapiens, UniProt Q9HC29); assay: NOD2 signaling inhibitors, cell-based, luminescence, uHTS, HEK293 (AID 1566); format: functional
HEK293 [9] = assay: NOD2 signaling inhibitors in MDP-stimulated cells, cell-based, uHTS, luminescence (AID 2001); format: functional; details: Homo sapiens
HEK293 [10] = assay: cells; format: functional, cell-based; details: Homo sapiens; remark: listed apart in the source
[11] = Counterscreen for IDE inhibitors: Luminescence-based cell-based high throughput dose response assay to identify compounds that are cytotoxic to HEK cells. [Related pubchem assays: 434962 (Primary screen (IDE inhibitors in singlicate)), 449730 (Counterscreen (Cytotoxicity in triplicate)), 435028 (Confirmation (IDE inhibitors in triplicate)) …; format: functional; details: HEK293
Insulin-degrading enzyme = molecular target: T2, Insulin-degrading enzyme (Homo sapiens, UniProt P14735); assay: Dose Response: Fluorescence polarization-based cell-based high throughput dose response assay for inhibitors of insulin-degrading enzyme (IDE). [Related pubchem assays: 434962 (Primary screen (IDE inhibitors in singlicate)), 449730 (Counterscreen (Cytotoxicity in triplicate)), 435028 (Confirmation (IDE inhibitors in triplicate)), 434984 (Summary …; format: functional
T2 sequence (P14735 whole entry): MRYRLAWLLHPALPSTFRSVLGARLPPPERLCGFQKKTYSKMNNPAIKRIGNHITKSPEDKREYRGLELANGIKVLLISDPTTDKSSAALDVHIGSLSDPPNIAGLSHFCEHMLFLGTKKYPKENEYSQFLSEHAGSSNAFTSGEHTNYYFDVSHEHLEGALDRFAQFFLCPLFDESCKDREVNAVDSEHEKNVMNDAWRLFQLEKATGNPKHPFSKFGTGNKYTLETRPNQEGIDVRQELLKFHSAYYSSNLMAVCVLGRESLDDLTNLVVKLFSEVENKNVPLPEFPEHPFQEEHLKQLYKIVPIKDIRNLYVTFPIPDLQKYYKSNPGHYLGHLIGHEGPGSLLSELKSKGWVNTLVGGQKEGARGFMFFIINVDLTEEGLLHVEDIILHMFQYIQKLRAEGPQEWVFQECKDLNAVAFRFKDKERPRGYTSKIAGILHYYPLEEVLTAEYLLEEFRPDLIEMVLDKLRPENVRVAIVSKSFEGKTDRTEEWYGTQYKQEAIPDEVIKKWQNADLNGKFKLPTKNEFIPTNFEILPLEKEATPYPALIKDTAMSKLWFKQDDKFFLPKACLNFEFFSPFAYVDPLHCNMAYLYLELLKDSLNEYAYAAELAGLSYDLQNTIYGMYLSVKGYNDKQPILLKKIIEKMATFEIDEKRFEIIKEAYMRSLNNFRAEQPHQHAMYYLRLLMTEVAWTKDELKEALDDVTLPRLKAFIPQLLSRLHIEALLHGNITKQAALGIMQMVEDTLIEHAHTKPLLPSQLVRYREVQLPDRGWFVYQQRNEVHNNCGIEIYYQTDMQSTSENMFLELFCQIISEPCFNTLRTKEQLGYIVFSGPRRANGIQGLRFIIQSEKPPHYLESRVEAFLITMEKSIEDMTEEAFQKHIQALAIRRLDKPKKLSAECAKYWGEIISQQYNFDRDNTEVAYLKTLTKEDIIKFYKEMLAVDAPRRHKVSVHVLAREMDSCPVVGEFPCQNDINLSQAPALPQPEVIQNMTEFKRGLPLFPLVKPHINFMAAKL

[12] = inhibitors of firefly luciferase expression or activity, dose response, H4 neuroglioma cells, luminescence (AID 1990); format: functional, cell-based
[13] = molecular target: T3, Heat shock factor protein 1 (Mus musculus, UniProt P38532); assay: inhibition of MG132-induced HSE-luciferase signal, confirmation, cell-based, NIH3T3, luminescence, dose retest (AID 2382); format: functional;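 also: NIH3T3 fibroblasts with HSF1-driven luciferase reporter stressed by proteasome inhibitor MG132; luminescence from HSF1-driven luciferase expression after 8 hours of MG132 stress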
T3 sequence (P38532 whole entry): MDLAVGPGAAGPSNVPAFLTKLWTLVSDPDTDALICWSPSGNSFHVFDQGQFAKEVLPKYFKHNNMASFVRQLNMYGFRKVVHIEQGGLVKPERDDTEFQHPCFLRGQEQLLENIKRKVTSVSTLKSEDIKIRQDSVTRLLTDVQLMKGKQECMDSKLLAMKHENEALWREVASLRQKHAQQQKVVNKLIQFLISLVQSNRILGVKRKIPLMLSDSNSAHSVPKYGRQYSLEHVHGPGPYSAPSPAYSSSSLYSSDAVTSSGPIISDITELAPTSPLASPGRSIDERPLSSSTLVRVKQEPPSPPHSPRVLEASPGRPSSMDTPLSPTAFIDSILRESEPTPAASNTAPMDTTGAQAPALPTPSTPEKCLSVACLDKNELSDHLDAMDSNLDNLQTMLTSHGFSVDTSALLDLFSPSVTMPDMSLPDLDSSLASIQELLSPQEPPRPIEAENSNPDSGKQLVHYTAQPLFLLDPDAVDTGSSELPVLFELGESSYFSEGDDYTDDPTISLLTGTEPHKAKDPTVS

[14] = inhibitors of SNCA 5'UTR-driven reporter translation, confirmation, H4 neuroglioma cells, luminescence (AID 1988); format: functional, cell-based
[15] = molecular target: FAD-linked sulfhydryl oxidase ALR (Homo sapiens, UniProt P55789); assay: inhibitors of human ALR sulfhydryl oxidase, dose response, biochemical, H2O2 detection, luminescence, cherry-pick (AID 493248)
[16] = molecular target: T4, Microphthalmia-associated transcription factor (Homo sapiens, UniProt O75030); assay: TRPM1 promoter luciferase signal decrease, dose response, MITF inhibitor project, cell-based, SK-MEL-5, cherry-picked, set 3 (AID 493073); format: functional
T4 sequence (O75030 whole entry): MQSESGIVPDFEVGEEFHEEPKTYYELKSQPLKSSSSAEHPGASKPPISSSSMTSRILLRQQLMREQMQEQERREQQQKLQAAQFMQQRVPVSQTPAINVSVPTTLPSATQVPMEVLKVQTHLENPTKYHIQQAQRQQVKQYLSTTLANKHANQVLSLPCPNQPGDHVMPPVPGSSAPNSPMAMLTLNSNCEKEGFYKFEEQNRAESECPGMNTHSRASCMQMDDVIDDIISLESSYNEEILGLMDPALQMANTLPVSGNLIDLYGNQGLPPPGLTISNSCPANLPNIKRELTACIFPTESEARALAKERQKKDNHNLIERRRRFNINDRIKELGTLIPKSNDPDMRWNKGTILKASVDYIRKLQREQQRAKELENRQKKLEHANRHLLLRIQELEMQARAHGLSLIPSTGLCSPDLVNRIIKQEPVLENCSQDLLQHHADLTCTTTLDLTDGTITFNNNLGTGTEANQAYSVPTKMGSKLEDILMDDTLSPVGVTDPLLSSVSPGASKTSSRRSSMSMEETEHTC

Cytochrome P450 2C9 = Cytochrome P450 2C9 (Homo sapiens, UniProt P11712)
Cytochrome P450 3A4 = Cytochrome P450 3A4 (Homo sapiens, UniProt P08684); details: Potency;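 also: confirmatory qHTS run detecting inhibitors and substrates of CYP3A4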
Cytochrome P450 3A4, sequence (P08684 whole entry): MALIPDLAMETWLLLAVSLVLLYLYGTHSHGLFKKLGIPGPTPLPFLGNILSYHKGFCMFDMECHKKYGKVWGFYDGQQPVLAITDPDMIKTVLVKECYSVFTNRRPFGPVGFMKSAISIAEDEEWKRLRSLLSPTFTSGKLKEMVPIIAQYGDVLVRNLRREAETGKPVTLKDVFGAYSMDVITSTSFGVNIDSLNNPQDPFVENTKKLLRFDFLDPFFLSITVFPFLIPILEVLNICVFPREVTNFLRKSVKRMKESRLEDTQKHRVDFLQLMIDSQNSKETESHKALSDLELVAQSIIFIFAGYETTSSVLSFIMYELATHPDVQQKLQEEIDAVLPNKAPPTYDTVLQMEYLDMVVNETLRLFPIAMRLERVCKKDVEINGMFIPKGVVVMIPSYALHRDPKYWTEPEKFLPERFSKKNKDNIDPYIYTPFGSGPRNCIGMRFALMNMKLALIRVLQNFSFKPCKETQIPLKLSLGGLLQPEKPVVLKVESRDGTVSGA

Nucleotide-binding oligomerization domain-containing protein 2, sequence (Q9HC29 whole entry, the tested form may be a part): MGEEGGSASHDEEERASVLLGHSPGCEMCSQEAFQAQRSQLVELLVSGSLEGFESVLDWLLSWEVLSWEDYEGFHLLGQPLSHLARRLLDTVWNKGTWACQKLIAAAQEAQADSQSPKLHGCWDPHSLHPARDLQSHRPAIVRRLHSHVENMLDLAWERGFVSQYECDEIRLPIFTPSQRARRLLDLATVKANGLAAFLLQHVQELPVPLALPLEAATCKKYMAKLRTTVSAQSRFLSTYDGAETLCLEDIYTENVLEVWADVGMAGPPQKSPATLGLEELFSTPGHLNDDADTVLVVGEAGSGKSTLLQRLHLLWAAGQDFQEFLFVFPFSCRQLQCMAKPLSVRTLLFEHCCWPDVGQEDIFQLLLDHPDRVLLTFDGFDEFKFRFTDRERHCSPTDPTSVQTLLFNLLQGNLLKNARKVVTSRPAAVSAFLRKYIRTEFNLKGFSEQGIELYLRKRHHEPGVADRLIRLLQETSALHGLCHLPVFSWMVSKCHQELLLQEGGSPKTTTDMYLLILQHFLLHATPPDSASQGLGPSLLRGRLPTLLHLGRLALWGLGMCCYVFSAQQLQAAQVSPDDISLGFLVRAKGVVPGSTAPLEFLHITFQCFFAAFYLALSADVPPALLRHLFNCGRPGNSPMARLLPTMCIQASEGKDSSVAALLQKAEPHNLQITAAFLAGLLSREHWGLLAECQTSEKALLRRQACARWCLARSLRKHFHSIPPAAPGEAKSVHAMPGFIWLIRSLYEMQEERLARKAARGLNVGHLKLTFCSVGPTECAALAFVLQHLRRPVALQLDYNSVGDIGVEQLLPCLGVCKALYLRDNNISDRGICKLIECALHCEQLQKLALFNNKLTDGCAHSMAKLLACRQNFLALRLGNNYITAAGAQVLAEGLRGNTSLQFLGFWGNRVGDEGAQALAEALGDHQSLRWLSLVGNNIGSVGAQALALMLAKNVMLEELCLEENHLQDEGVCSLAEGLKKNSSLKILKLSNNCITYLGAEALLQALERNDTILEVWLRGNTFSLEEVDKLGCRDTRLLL
Glyceraldehyde-3-phosphate dehydrogenase, sequence (P04406 whole entry): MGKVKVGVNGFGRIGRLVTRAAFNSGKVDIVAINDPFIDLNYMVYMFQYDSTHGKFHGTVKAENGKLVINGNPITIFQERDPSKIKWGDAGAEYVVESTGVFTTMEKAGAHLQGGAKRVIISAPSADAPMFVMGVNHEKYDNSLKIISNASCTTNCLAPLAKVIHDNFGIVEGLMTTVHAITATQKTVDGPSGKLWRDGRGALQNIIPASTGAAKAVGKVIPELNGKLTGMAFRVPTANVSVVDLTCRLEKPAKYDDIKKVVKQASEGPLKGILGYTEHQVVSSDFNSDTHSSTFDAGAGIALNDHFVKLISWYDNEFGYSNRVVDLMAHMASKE
Cytochrome P450 2C9, sequence (P11712 whole entry): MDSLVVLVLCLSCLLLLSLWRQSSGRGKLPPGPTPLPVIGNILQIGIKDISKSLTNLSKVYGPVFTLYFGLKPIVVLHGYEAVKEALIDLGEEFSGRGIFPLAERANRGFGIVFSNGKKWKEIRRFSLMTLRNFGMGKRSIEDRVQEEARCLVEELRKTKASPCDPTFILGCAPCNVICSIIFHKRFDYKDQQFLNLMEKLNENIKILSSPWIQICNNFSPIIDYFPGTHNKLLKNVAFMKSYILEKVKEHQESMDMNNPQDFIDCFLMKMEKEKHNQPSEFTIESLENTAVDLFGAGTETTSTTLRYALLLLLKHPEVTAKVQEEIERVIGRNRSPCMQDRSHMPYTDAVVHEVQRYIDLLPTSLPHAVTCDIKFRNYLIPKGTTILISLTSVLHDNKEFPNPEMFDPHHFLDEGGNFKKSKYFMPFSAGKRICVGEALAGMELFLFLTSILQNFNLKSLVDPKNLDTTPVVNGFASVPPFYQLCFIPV
FAD-linked sulfhydryl oxidase ALR, sequence (P55789 whole entry): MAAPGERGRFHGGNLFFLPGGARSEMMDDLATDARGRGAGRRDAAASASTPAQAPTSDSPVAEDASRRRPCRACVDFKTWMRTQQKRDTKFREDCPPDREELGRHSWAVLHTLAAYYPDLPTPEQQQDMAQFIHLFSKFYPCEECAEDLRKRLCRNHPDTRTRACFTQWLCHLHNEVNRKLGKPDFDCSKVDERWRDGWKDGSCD

CCCn1c(=O)c2ccccc2n2c(SCCOc3ccc(C)cc3)nnc12
EC50 [1]: 1.68 µM (active)

O=C(O)c1ccc2cccc(O)c2n1
EC50 (cells [2]): > 350 µM (not active)
IC50 [3]: > 100 µM (not active)
EC50 (cells [4]): > 350 µM (not active)

COc1ccccc1-c1nc(C#N)c(N2CCN(c3cccc(Cl)c3)CC2)o1
EC50 (HEK293 [5]): 8.65 µM (active)
IC50 (HEK293 [6]): 18.5 µM (active)
IC50 (HEK293 [7]): > 20 µM (inactive)
EC50 [8]: 11.2 µM (active)
IC50 (HEK293 [9]): 17.4 µM (inactive)
IC50 (HEK293 [10]): > 20 µM (inactive)

Cc1ccc(NC(=O)Cc2cc(C(=O)O)c3ccccc3n2)c(C)c1
EC50 (HEK293 [5]): 7.04 µM (active)
IC50 (HEK293 [6]): 11.7 µM (active)
IC50 (HEK293 [7]): > 20 µM (inactive)
EC50 [8]: 6.77 µM (active)
IC50 (HEK293 [9]): 8.76 µM (inactive)
IC50 (HEK293 [10]): > 20 µM (inactive)

COCC(C)n1c(C)cc(C(=O)COc2ccc(C)nc2[N+](=O)[O-])c1C (stereo unspecified)
EC50 (HEK293 [5]): > 20 µM (inactive)
IC50 (HEK293 [6]): 6.88 µM (active)
IC50 (HEK293 [7]): > 20 µM (inactive)
EC50 [8]: 16.7 µM (active)
IC50 (HEK293 [9]): > 20 µM (inactive)
IC50 (HEK293 [10]): > 20 µM (inactive)

O=C(O)c1ccc(OCc2ccc(C(=O)O)o2)cc1
IC50 [3]: > 100 µM (not active)

CC1CCc2c(sc3ncnc(SCC(=O)Nc4ccc(C(=O)O)cc4)c23)C1 (stereo unspecified)
EC50 [1]: 6.68 µM (active)

Cc1ccc(-c2cc(C(=O)Nc3ccc(S(=O)(=O)Nc4ncccn4)cc3)[nH]n2)c(O)c1C
IC50 [11]: > 55.7 µM (not active)
IC50 (Insulin-degrading enzyme): 17.7 µM (not active)

O=C(Nc1ccc(Cl)cn1)c1ccc(Br)c(S(=O)(=O)N2CCCCC2)c1
EC50 (HEK293 [5]): 9.56 µM (active)
IC50 (HEK293 [6]): 7.73 µM (active)
IC50 (HEK293 [7]): 18.7 µM (active)
EC50 [8]: > 20 µM (inactive)
IC50 (HEK293 [9]): 9.77 µM (active)
IC50 (HEK293 [10]): > 20 µM (inactive)

CN(C)c1ccc(/C=C2\SC(=O)N(CCc3nnc(N)s3)C2=O)cc1
EC50 [12]: 8.39 µM (inconclusive)
IC50 [11]: 47.8 µM (not active)
EC50 [13]: 6.52 µM (inconclusive)
EC50 [14]: 4.74 µM (active)
IC50 (Insulin-degrading enzyme): > 55.9 µM (not active)
AC50 [15]: 1.87 µM (active)
AC50 [16]: 2.54 µM (active)

CCOC(=O)C1C(=O)NC(SCC(N)=O)=C(C#N)C1c1ccccc1OCC (stereo unspecified)
IC50 [11]: > 55.7 µM (not active)
IC50 (Insulin-degrading enzyme): > 6.21 µM (active)

O=S(=O)(CC(O)COc1ccccc1Cl)c1ccccc1 (stereo unspecified)
AC50 (Cytochrome P450 2C9): inconclusive

O=C(c1cccc(C(F)(F)F)c1)C1CCCN(Cc2ccccc2O)C1 (stereo unspecified)
EC50 [1]: 2.37 µM (active)

COc1ccc(CNC(=O)c2ccc3ccccc3n2)cc1OC
EC50 (HEK293 [5]): 7.83 µM (active)
IC50 (HEK293 [6]): 14.5 µM (active)
IC50 (HEK293 [7]): > 20 µM (inactive)
EC50 [8]: 11.7 µM (active)
IC50 (HEK293 [9]): > 20 µM (inactive)
IC50 (HEK293 [10]): > 20 µM (inactive)

Cc1ccccc1CN1CCCC(C(=O)Nc2ccccc2Oc2cccnc2)C1 (stereo unspecified)
EC50 [1]: 5.31 µM (active)

COc1ccccc1-c1oc2ccccc2c(=O)c1OC
AC50 (Cytochrome P450 3A4): 20 µM (inconclusive)

CN(C)C(=O)c1ccc(-n2nc(C(F)(F)F)c3c2CCCC3)cc1
AC50 (Cytochrome P450 2C9): inconclusive

O=C1CN=C(Nc2cccc(C(F)(F)F)c2)N1C1CCCC1
EC50 [1]: 6.68 µM (active)

COc1cc(-c2oc3cc(O)ccc3c(=O)c2O)ccc1O [GERALDOL]
AC50 (Cytochrome P450 3A4): 10 µM (inconclusive)

CC(C(=O)O)c1ccc(N2Cc3ccccc3C2=O)cc1 (stereo unspecified) [INDOPROFEN]
AC50 (Cytochrome P450 3A4): 39.8 µM (inconclusive)

CNC(=O)N(C)c1nnc(C(C)(C)C)s1 [TEBUTHIURON]
AC50 (Cytochrome P450 3A4): 12.6 µM (inconclusive)
